Assay results from patent publication US8476298B2 (Exelixis, Inc., priority 2003, dated 2013).

Experiments:
[1] = target: T1, c-Met (baculovirus expressed human c-Met kinase domain P948-S1343) (Homo sapiens, UniProt P08581); test: c-Met Luciferase-Coupled Chemiluminescent Kinase assay (LCCA); assay type: biochemical;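 note: kinase activity read as percent ATP left after reaction, by luciferase-luciferin chemiluminescence, with 1 µM ATP and 1 µM poly-EY substrate, 2 h at ambient temperature, 10-point dose-response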
T1 construct: human c-Met kinase domain P948-S1343; host or cells: baculovirus expression
T1 sequence (P08581 1011-1343 limits assumed): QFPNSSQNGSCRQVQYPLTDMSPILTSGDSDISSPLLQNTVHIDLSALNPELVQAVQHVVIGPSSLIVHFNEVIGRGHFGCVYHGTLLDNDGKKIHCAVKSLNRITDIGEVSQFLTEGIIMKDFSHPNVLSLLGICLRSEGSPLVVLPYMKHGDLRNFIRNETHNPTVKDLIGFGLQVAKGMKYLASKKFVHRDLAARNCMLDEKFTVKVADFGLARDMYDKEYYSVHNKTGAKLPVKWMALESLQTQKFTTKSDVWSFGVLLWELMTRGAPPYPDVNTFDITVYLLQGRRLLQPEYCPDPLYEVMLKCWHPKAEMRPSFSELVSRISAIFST

[2] = target: T2, Flt-3 (baculovirus expressed human Flt-3 kinase domain R571-S993) (Homo sapiens, UniProt P36888); test: biochemical; settings: read-out: flt3 IC50;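 note: Luciferase-coupled chemiluminescent kinase assay, activity read as percent ATP left after a 3 h reaction at room temperature, ATP near KM, 10-point dose-response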
T2 construct: human Flt-3 kinase domain R571-S993; host or cells: baculovirus expression
T2 sequence (P36888 571-993): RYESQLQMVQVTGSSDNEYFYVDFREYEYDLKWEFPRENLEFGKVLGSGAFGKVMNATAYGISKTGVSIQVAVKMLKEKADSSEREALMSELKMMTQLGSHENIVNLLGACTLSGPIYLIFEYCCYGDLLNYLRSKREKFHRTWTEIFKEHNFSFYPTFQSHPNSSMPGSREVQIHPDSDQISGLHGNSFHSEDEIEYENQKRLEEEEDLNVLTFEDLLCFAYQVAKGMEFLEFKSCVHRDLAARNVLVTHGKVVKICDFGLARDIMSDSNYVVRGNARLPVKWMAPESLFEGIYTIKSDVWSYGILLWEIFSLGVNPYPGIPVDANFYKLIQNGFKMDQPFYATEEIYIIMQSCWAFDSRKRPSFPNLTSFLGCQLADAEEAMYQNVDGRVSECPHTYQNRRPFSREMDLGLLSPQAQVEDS

[3] = target: T3, KDR (baculovirus expressed human KDR kinase domain D807-V1356) (Homo sapiens, UniProt P35968); test: biochemical;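 note: Luciferase-coupled chemiluminescent kinase assay, activity read as percent ATP left after 4 h reaction at ambient temperature, ATP near KM, 10-point dose-response in 384-well plates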
T3 construct: human KDR kinase domain D807-V1356; host or cells: baculovirus expression
T3 sequence (P35968 807-1356): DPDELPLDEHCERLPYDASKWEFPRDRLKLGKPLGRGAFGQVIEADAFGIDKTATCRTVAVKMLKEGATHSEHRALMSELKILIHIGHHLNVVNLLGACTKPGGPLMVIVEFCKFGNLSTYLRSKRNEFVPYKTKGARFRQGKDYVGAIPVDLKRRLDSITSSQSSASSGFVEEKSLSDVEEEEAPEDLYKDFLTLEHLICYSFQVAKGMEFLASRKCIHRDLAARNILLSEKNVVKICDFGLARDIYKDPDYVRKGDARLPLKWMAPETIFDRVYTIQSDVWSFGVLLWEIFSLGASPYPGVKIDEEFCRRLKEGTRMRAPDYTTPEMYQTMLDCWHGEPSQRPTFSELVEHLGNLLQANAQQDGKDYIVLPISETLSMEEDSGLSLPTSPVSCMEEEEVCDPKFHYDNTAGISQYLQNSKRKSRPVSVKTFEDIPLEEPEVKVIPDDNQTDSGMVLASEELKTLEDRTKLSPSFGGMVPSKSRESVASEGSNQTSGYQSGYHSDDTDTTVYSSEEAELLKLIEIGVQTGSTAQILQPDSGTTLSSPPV

IC50 [1] | IC50 [2] | IC50 [3] | SMILES
< 50 nM | 500 to 5000 nM | 50 to 500 nM | CCN(CC)CCOc1cc2ncnc(Oc3ccc(NC(=O)C4(C(=O)Nc5ccc(F)cc5)CC4(C)C)cc3F)c2cc1OC (stereo not drawn) [Example 378, N-(4-{[7-{[2-(diethylamino)ethyl]oxy}-6-(methyloxy)quinazolin-4-yl]oxy}-3-fluorophenyl)-N′-(4-fluorophenyl)-2,2-dimethylcyclopropane-1,1-dicarboxamide]
< 50 nM | 500 to 5000 nM | < 50 nM | CCN(CC)CCCOc1cc2ncnc(Oc3ccc(NC(=O)C4(C(=O)Nc5ccc(F)cc5)CC4(C)C)cc3F)c2cc1OC (stereo not drawn) [Example 379, N-(4-{[7-{[3-(diethylamino)propyl]oxy}-6-(methyloxy)quinazolin-4-yl]oxy}-3-fluorophenyl)-N′-(4-fluorophenyl)-2,2-dimethylcyclopropane-1,1-dicarboxamide]
< 50 nM | 50 to 500 nM | < 50 nM | COc1cc2c(Oc3ccc(NC(=O)C4(C(=O)Nc5ccc(F)cc5)CCC4)cc3F)ncnc2cc1OCCCN1CCN(C)CC1 [Example 381, N-{3-fluoro-4-[(6-(methyloxy)-7-{[3-(4-methylpiperazin-1-yl)propyl]oxy}quinazolin-4-yl)oxy]phenyl}-N′-(4-fluorophenyl)cyclobutane-1,1-dicarboxamide]
< 50 nM | 50 to 500 nM | < 50 nM | COc1cc2c(Oc3ccc(NC(=O)C4(C(=O)Nc5ccc(F)cc5)CCC4)cc3F)ncnc2cc1OCCCN1CCNCC1 [Example 382, N-[3-fluoro-4-({6-(methyloxy)-7-[(3-piperazin-1-ylpropyl)oxy]quinazolin-4-yl}oxy)phenyl]-N′-(4-fluorophenyl)cyclobutane-1,1-dicarboxamide]
< 50 nM | 500 to 5000 nM | < 50 nM | COc1cc2c(Oc3ccc(NC(=O)C4(C(=O)Nc5ccc(F)cc5)[C@H](C)[C@H]4C)cc3F)ncnc2cc1OCCCN1CCOCC1 (stereo partly drawn) [Example 383, (2R,3R)-N-[3-fluoro-4-({6-(methyloxy)-7-[(3-morpholin-4-ylpropyl)oxy]quinazolin-4-yl}oxy)phenyl]-N′-(4-fluorophenyl)-2,3-dimethylcyclopropane-1,1-dicarboxamide]

The next lines start with the compound.

SMILES | IC50 [1] | IC50 [2] | IC50 [3]
CCN(CC)CCCOc1cc2ncnc(Oc3ccc(NC(=O)C4(C(=O)Nc5ccc(F)cc5)CCC4)cc3F)c2cc1OC [Example 380, N-(4-{[7-{[3-(diethylamino)propyl]oxy}-6-(methyloxy)quinazolin-4-yl]oxy}-3-fluorophenyl)-N′-(4-fluorophenyl)cyclobutane-1,1-dicarboxamide] | < 50 nM | 50 to 500 nM | < 50 nM
CCN(CC)CCCOc1cc2nccc(Oc3ccc(NC(=O)C4(C(=O)Nc5ccc(F)cc5)CCC4)cc3F)c2cc1OC [Example 384, N-(4-{[7-{[3-(diethylamino)propyl]oxy}-6-(methyloxy)quinolin-4-yl]oxy}-3-fluorophenyl)-N′-(4-fluorophenyl)cyclobutane-1,1-dicarboxamide] | < 50 nM | 500 to 5000 nM | < 50 nM
COc1cc2c(Oc3ccc(NC(=O)C4(C(=O)Nc5ccc(F)cc5)CCC4)cc3F)ccnc2cc1OCCCN1CCN(C)CC1 [Example 385, N-{3-fluoro-4-[(6-(methyloxy)-7-{[3-(4-methylpiperazin-1-yl)propyl]oxy}quinolin-4-yl)oxy]phenyl}-N′-(4-fluorophenyl)cyclobutane-1,1-dicarboxamide] | < 50 nM | 500 to 5000 nM | < 50 nM
CCN(CC)CCCOc1cc2ncnc(Oc3ccc(NC(=O)[C@]4(C(=O)Nc5ccc(F)cc5)C[C@H]4C)cc3F)c2cc1OC [Example 386, (1R,2R)-N-(4-{[7-{[3-(diethylamino)propyl]oxy}-6-(methyloxy)quinazolin-4-yl]oxy}-3-fluorophenyl)-N′-(4-fluorophenyl)-2-methylcyclopropane-1,1-dicarboxamide] | < 50 nM | < 50 nM | < 50 nM
